From US12187742B2 (XRAD Therapeutics, Inc., priority 2018, dated 2025)
Structures can show the parent of a compound that is named as a salt.

What follows are molecules tested against ATM (Homo sapiens (Human), UniProt Q13315) (assay: ATM in Cell Western Assay (pKAP1 in etoposide-treated MCF-7 cells)). Settings: MCF-7 cells, etoposide 100 μM, 1 hr, pKAP1 readout.
Format: cell-based
How it was run: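 Cells received compounds in a 10-dose, 3-fold series from a 1 μM final top concentration, then 100 μM etoposide, for 1 hr at 37° C. They were then fixed with paraformaldehyde and permeabilized with 0.1% Triton X-100. After immunostaining, plates were scanned on an infrared imager.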

Sequence of ATM (Q13315 whole entry): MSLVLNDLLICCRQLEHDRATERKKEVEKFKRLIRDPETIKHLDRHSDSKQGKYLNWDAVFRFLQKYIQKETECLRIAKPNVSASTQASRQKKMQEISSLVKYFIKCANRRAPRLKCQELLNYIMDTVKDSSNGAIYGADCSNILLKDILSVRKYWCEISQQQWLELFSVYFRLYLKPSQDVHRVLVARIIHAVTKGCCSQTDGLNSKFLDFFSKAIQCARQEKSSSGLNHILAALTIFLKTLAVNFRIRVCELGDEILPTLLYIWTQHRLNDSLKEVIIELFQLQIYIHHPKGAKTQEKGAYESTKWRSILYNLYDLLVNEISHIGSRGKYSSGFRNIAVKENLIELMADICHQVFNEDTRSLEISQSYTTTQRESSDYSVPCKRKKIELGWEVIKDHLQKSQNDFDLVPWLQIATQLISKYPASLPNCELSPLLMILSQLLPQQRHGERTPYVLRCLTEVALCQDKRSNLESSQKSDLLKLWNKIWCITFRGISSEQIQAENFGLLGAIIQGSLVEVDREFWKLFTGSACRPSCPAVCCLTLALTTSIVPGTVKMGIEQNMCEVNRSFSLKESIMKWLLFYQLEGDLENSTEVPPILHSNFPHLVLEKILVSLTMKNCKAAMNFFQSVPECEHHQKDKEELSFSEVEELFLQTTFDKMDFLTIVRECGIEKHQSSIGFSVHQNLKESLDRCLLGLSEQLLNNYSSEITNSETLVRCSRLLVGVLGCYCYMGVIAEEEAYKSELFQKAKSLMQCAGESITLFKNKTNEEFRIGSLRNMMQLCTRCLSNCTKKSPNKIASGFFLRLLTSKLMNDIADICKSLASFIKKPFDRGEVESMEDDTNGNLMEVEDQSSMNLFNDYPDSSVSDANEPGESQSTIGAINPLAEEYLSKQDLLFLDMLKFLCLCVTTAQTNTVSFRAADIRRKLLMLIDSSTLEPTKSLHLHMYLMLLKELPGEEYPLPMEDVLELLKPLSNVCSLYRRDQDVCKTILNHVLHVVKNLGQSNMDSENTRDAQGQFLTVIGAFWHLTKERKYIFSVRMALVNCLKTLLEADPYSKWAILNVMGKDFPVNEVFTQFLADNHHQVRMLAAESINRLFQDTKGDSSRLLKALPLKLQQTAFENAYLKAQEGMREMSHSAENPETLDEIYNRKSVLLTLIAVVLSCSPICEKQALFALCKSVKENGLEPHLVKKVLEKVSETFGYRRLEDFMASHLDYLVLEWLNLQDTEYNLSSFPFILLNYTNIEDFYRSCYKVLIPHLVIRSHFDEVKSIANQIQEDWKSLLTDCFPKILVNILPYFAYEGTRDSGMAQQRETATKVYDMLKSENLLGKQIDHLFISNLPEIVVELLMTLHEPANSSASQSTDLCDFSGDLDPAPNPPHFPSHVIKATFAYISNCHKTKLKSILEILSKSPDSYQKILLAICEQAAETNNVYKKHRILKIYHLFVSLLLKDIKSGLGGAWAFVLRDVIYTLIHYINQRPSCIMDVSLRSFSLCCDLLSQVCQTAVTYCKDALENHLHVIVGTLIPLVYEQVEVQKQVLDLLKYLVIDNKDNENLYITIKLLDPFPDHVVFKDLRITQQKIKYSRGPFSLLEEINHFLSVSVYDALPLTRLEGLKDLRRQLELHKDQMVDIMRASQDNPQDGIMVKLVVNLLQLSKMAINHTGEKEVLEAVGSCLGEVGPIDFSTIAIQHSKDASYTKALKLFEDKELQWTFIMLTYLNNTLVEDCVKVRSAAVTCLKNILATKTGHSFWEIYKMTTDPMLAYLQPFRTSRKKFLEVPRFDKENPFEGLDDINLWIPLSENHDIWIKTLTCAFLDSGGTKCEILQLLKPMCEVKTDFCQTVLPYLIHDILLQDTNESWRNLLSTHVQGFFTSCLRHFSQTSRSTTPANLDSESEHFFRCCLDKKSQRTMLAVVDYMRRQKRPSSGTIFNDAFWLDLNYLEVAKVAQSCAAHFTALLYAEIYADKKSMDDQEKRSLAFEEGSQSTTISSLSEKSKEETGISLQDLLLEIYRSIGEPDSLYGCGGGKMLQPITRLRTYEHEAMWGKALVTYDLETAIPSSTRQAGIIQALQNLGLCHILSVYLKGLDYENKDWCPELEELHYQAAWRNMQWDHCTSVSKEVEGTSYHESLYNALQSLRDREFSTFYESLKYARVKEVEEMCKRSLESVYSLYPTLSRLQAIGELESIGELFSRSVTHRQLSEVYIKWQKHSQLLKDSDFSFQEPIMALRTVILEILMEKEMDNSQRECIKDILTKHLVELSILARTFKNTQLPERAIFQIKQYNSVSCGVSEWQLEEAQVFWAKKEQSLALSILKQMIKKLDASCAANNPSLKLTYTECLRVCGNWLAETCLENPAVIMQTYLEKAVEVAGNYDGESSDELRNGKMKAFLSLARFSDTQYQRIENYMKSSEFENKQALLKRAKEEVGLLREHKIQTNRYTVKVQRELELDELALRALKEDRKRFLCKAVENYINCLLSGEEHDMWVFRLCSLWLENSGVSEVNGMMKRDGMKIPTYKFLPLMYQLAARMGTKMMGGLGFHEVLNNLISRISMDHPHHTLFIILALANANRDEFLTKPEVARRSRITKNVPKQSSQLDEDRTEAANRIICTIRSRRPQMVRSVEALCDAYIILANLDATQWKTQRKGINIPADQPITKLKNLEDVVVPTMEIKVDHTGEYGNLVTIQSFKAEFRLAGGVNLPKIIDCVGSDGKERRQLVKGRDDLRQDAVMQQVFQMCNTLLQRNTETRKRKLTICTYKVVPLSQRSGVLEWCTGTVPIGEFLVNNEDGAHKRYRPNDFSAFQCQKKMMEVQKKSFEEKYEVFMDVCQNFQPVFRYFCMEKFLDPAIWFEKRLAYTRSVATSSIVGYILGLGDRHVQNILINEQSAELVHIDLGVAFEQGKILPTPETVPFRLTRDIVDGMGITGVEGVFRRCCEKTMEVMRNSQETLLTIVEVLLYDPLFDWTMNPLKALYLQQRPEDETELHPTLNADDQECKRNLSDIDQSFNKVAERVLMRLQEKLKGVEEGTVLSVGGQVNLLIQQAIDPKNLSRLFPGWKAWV

Row | IC50 [nM] | Compound
1 | 1 to 100 | Cc1ccc(S(=O)(=O)Nc2cc(-c3ccc4ncc5c(c4c3)C3(CCC3)C(=O)N5C)cnc2OCCCN2C(C)CCCC2C)cn1 (stereo not drawn) [Example 210, N-(2-(3-(2,6-Dimethylpiperidin-1-yl)propoxy)-5-(3′-methyl-2′-oxo-2′,3′-dihydrospiro[cyclobutane-1,1′-pyrrolo[2,3-c]quinolin]-8′-yl)pyridin-3-yl)-6-methylpyridine-3-sulfonamide]
2 | > 100 | CN1C(=O)C2(CCC2)c2c1c(N)nc1ccc(-c3cnc(N4CC(N(C)C)C4)c(NS(C)(=O)=O)c3)cc21 [Example 327, N-(5-(4′-Amino-3′-methyl-2′-oxo-2′,3′-dihydrospiro[cyclobutane-1,1′-pyrrolo[2,3-c]quinolin]-8′-yl)-2-(3-(dimethylamino)azetidin-1-yl)pyridin-3-yl)methanesulfonamide hydrochloride]
3 | > 100 | CN1C(=O)C2(CCC2)c2c1cnc1ccc(-c3cnc(OCCCO)c(NS(C)(=O)=O)c3)cc21 [Example 254, N-(2-(3-Hydroxypropoxy)-5-(3′-methyl-2′-oxo-2′,3′-dihydrospiro[cyclobutane-1,1′-pyrrolo[2,3-c]quinolin]-8′-yl)pyridin-3-yl)methanesulfonamide]
4 | 0.5 to 1 | CN(C)CCCOc1ncc(-c2ccc3ncc4c(c3c2)C2(CC2)C(=O)N4C)cc1NS(=O)(=O)c1cccs1 [Example 120]
5 | > 100 | CN1C(=O)C2(CCC2)c2c1cnc1ccc(-c3cnc(OCCCN4CC5CC(C4)O5)c(NS(C)(=O)=O)c3)cc21 [Example 303, N-(2-(3-(6-Oxa-3-azabicyclo[3.1.1]heptan-3-yl)propoxy)-5-(3′-methyl-2′-oxo-2′,3′-dihydrospiro[cyclobutane-1,1′-pyrrolo[2,3-c]quinolin]-8′-yl)pyridin-3-yl)methanesulfonamide]
6 | > 100 | CN1C(=O)C2(CCC2)c2c1cnc1ccc(-c3cnc(N4CCS(=O)(=O)CC4)c(NS(=O)(=O)c4ccccc4)c3)cc21 [Example 135, N-(2-(1,1-Dioxidothiomorpholino)-5-(3′-methyl-2′-oxo-2′,3′-dihydrospiro[cyclobulane-1,1′-pyrrolo[2,3-c]quinolin]-8′-yl)pyridin-3-yl)benzenesulfonamide hydrochloride]

Same assay, conditions: pKAP1 in etoposide-treated MCF-7 cells

Row | Compound | IC50 [nM]
7 | CCC(C)N1CC2(C1)C(=O)N(C)c1cnc3cc(F)c(-c4cnc(OCCNC(C)C)c(NS(C)(=O)=O)c4)cc3c12 (stereo not drawn) [Example 487, N-(5-(1-(sec-Butyl)-7′-fluoro-3′-methyl-2′-oxo-2′,3′-dihydrospiro[azetidine-3,1′-pyrrolo[2,3-c]quinolin]-8′-yl)-2-(2-(isopropylamino)ethoxy)pyridin-3-yl)methanesulfonamide] | 1 to 100
8 | CN1C(=O)C2(CCC2)c2c1cnc1ccc(-c3cnc(N4CCC(C)(N5CCCCC5)CC4)c(NS(C)(=O)=O)c3)cc21 [Example 354, N-(5-(3′-Methyl-2′-oxo-2′,3′-dihydrospiro[cyclobutane-1,1′-pyrrolo[2,3-c]quinolin]-8′-yl)-2-(4′-methyl-[l,4′-bipiperidin]-1′-yl)pyridin-3-yl)methanesulfonamide] | > 100
9 | CC(C)NCCOc1ncc(-c2cc3c(cc2F)ncc2c3[C@]3(C[C@@H](Oc4ccccc4)C3)C(=O)N2C)cc1NS(=O)(=O)N(C)C [Example 403, trans-S′-{5-[(Dimethylsulfamoyl)amino]-6-{2-[(propan-2-ylamino]ethoxy}pyridine-3-yl}-7′-fluoro-3′-methyl-3-phenoxy-2′,3′-dihydrospiro[cyclobutane-1,1′-pyrrolo[2,3-c]quinoline]-2′-one hydrochloride] | > 100
10 | CC(C)NCCOc1ncc(-c2cc3c(cc2F)ncc2c3[C@]3(C[C@H](O)C3)C(=O)N2C)cc1NS(C)(=O)=O [Example 381, cis-N-(5-(7′-Fluoro-3-hydroxy-3′-methyl-2′-oxo-2′,3′-dihydrospiro[cyclobutane-1,1′-pyrrolo[2,3-c]quinolin]-8′-yl)-2-(2-(isopropylamino)ethoxy)pyridin-3-yl)methanesulfonamide hydrochloride] | 1 to 100
11 | CC(C)NCCOc1ncc(-c2ccc3ncc4c(c3n2)C2(CCC2)C(=O)N4C)cc1NS(C)(=O)=O [Example 561, N-(5-[7-Methyl-8-oxo-7,8-dihydrospiro[cyclobutane-1,9-pyrrolo[2,3-c]1,5-naphthyridin]-2-yl]-2-[2-[(propan-2-yl)amino]ethoxy]pyridin-3-yl) methanesulfonamide] | 1 to 100
12 | CC(C)NCCOc1ncc(-c2cc3c4c(cnc3cc2F)N(C)C(=O)C42CN(c3ccc(C(C)(C)C)cc3)C2)cc1NS(C)(=O)=O [Example 531, N-(5-(1-(4-(ter-Butyl)phenyl)-7′-fluoro-3′-methyl-2′-oxo-2′,3′-dihydrospiro[azetidine-3,1′-pyrrolo[2,3-c]quinolin]-8′-yl)-2-(2-(isopropylamino)ethoxy)pyridin-3-yl)methanesulfonamide] | 1 to 100
13 | CN1C(=O)C2(CCC2)c2c1cnc1ccc(-c3cnc(N4CC5(CNC5)C4)c(NS(C)(=O)=O)c3)cc21 [Example 346, N-(5-(3′-Methyl-2′-oxo-2′,3′-dihydrospiro[cyclobutane-1,1 pyrrole[2,3-c]quinolin]-8′-yl)-2-(2,6-diazaspiro[3.3]heptan-2-yl)pyridin-3-yl) methanesulfonamide formate] | > 100

Now from value to molecule:

Row | IC50 [nM] | Compound
14 | 1 to 100 | CC(C)NCCOc1ncc(-c2cc3c(cc2F)ncc2c3[C@]3(C[C@H](N4CCCCC4)C3)C(=O)N2C)cc1NS(C)(=O)=O [Example 469, cis-N-(5-(7′-Fluoro-3′-methyl-2′-oxo-3-(piperidin-1-yl)-2′,3′-dihydrospiro[cyclobutane-1,1′-pyrrolo[2,3-c]quinolin]-8′-yl)-2-(2-(isopropylamino)ethoxy)pyridin-3-yl)methanesulfonamide]
15 | > 100 | CC(C)NCCOc1ncc(-c2cc3c(cc2F)ncc2c3[C@]3(C[C@H](n4ccccc4=O)C3)C(=O)N2C)cc1NS(C)(=O)=O [Example 475, cis-N-(5-(7′-Fluoro-3′-methyl-2′-oxo-3-(2-oxopyridin-1(2H)-yl)-2′,3′-dihydrospiro[cyclobutane-1,1′-pyrrolo[2,3-c]quinolin]-8′-yl)-2-(2-(isopropylamino)ethoxy)pyridin-3-yl)methanesulfonamide]
16 | 1 to 100 | CC(C)NCCOc1ncc(-c2cc3c4c(cnc3cc2F)N(C)C(=O)C42CN(C)C2)cc1NS(C)(=O)=O [Example 481, N-(5-(7′-Fluoro-1,3′-dimethyl-2′-oxo-2′,3′-dihydrospiro[azetidine-3,1′-pyrrolo[2,3-c]quinolin]-8′-yl)-2-(2-(isopropylamino)ethoxy)pyridin-3-yl)methanesulfonamide hydrochloride]
17 | 1 to 100 | CC(C)NCCOc1ncc(-c2cc3c4c(cnc3cc2F)N(C)C(=O)C42CN(c3cccc(C(F)(F)F)c3)C2)cc1NS(C)(=O)=O [Example 537, N-(5-(7′-Fluoro-3′-methyl-2′-oxo-1-(3-(trifluoromethyl)phenyl)-2′,3′-dihydrospiro[azetidine-3,1′-pyrrolo[2,3-c]quinolin]-8′-yl)-2-(2-(isopropylamino)ethoxy)pyridin-3-yl)methanesulfonamide]
18 | > 100 | CC(C)NCCOc1ncc(-c2cc3c(cc2F)ncc2c3[C@]3(C[C@@H](c4ccc(=O)[nH]c4)C3)C(=O)N2C)cc1NS(C)(=O)=O [Example 443, trans-N-(5-(7′-Fluoro-3′-methyl-2′-oxo-3-(6-oxo-1,6-dihydropyridin-3-yl)-2′,3′-dihydrospiro[cyclobutane-1,1′-pyrrolo[2,3-c]quinolin]-8′-yl)-2-(2-(isopropylamino)ethoxy)pyridin-3-yl)methanesulfonamide]
